Experimental data taken from EP1951308B1, “COMBINATION PREPARATIONS CONTAINING PHYSIOLOGICAL CELL MEMBRANE CONSTITUENTS INCLUDING PHOSPHATIDYLSERINE, CHOLINE AND A PYRIMIDINE NUCLEOSIDE/NUCLEOTIDE” (Susilo, Gisela, priority 2005, dated 2007).
Entries after “also recorded” stand apart in the source; their conditions may differ.

Tested on: elektrische Hirnaktivität
Experiment: EEG recording (CATEEM system, 17 electrodes, 10/20 system) of electrical brain activity after a single oral intake, compared with placebo; studies 1, 3, 4 and 5
Format: in vivo, gesunden Testpersonen
Settings: for Hirnaktivität / Hirnleistung / Gehirnfunktion (Stimulierung): conclusion in words drawn from the EEG results; for delta Aktivität in Bezug auf die Referenz (Placebo) / Veränderung der delta Aktivität im Vergleich zu Placebo: oral, Augen offen; for Veränderung der delta Aktivität im Vergleich zu Placebo: during 4 Stunden after intake, studies 3-5; for delta Power (delta Aktivität): study 1, recording condition not stated, 1-4 h after oral intake; for neuro-regenerierende Wirkung: summary of Studienbeispiele 1 - 5, EEG, single oral dose

Row | Molecule | Hirnaktivität / Hirnleistung / Gehirnfunktion (Stimulierung) | delta Aktivität in Bezug auf die Referenz (Placebo) (1 h after intake) [%] | delta Aktivität in Bezug auf die Referenz (Placebo) (2h after intake) [%] | delta Aktivität in Bezug auf die Referenz (Placebo) (4h after intake) [%] | Veränderung der delta Aktivität im Vergleich zu Placebo (result in words) | Beta-Aktivitäten (beta Power) (result in words, study 1) | alpha Power (alpha Aktivität) (result in words, study 1) | delta Aktivitäten (result in words, study 1, Augen offen) | delta Power (delta Aktivität) (result in words) | delta Power (delta Aktivität) (result in words, listed as INDO I) | neuro-regenerierende Wirkung
1 | Phosphatidylserin | nicht bzw. nur leicht jedoch nicht signifikant steigern; also recorded: nicht beobachtet | 96 | 94 | 94 | keinen signifikanten Veränderungen | nur bei einem Messzeitpunkt nämlich 3 Stunden nach Verabreichung des Wirkstoffs eine statistisch signifikante Abnahme | leichter aber nicht signifikanter Zunahme | während der zweiten und dritten Stunde vermindert, aber keine statistische Signifikanz | Abnahme des delta Power | Abnahme der elektrischen delta Aktivität (delta Power), die jedoch nur 4 Stunden nach Applikation statistisch signifikant war | -
2 | C[N+](C)(C)CCOP(=O)([O-])OP(=O)(O)OC[C@H]1O[C@@H](n2ccc(N)nc2=O)[C@H](O)[C@@H]1O [CDP-Cholin, Cytidindiphosphocholin] | nicht bzw. nur leicht jedoch nicht signifikant steigern | 98 | 102 | 96 | geringfügige aber im Vergleich zum Placebo-Arm nicht signifikante Veränderung |  |  |  |  |  | -
